From patent US20100204203A1, “Chemical Compounds 637: Pyridopyrimidinediones as PDE4 Inhibitors” (priority 2007, published 2010) come the findings set out here.

Counter-ions that a name gives are not always drawn.

In the assay the target is recombinant Human Phosphodiesterase B2 (PDE4B2) (Homo sapiens, UniProt Q07343). Nature of the assay: Human Phosphodiesterase B2 Radiometric Assay (yttrium silicate SPA beads, [3H]cyclic AMP). The conditions noted are these: recombinant human PDE4B2, radiometric SPA assay, 8 nM [3H]cyclic AMP; read-out: PDE4B2 pIC50 (converted). In kind it is biochemical. In short, it runs like this: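 Compounds were preincubated 30 min at 30 °C with 0.1 mg/mL PDE4B2 in 50 mM HEPES pH 7.5, 8.3 mM MgCl2, 1.7 mM EGTA, 0.01% Brij 35. Then 8 nM [3H]cAMP was added for 20 min, stopped with yttrium silicate SPA beads plus 18 mM ZnSO4 capturing product 5′AMP; pIC50 by curve fitting.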
Chain of recombinant Human Phosphodiesterase B2 (PDE4B2) (Q07343 1-564 isoform Q07343-2): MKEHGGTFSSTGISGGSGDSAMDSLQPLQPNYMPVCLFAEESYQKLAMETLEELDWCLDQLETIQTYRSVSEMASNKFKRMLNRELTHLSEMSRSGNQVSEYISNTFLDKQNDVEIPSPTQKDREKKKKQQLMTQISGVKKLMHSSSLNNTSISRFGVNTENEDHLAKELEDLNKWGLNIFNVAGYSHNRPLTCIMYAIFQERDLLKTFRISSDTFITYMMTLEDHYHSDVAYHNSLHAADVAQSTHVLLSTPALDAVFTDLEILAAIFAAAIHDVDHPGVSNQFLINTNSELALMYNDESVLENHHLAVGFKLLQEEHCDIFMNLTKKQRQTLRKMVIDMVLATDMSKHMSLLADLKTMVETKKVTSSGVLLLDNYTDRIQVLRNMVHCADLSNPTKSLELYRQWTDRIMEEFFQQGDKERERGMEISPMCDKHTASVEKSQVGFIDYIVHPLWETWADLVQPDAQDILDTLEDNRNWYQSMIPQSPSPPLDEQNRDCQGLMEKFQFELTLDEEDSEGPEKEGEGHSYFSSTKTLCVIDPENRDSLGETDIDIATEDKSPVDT
With `O=C(N[C@H]1CC[C@@H](n2c(=O)c3cc(F)cnc3n(-c3cccc(-c4ccc(F)cc4O)c3)c2=O)CC1)c1cn2cc(F)ccc2n1` [Example 80, 6-fluoro-N-{cis-4-[6-fluoro-1-(4′-fluoro-2′-hydroxybiphenyl-3-yl)-2,4-dioxo-1,4-dihydropyrido[2,3-d]pyrimidin-3(2H)-yl]cyclohexyl}imidazo[1,2-a]pyridine-2-carboxamide], the IC50 is 0.0794 nM. With `O=C(N[C@H]1CC[C@@H](n2c(=O)c3cc(F)cnc3n(-c3cccc(-c4ccc(CN5CCCNCC5)cc4)c3)c2=O)CC1)c1nc2ccccc2[nH]1` [Example 354, N-{cis-4-[1-[4′-(1,4-diazepan-1-ylmethyl)biphenyl-3-yl]-6-fluoro-2,4-dioxo-1,4-dihydropyrido[2,3-d]pyrimidin-3(2H)-yl]cyclohexyl}-1H-benzimidazole-2-carboxamide], the IC50 was 0.0398 nM.

In the case of `CN(C)Cc1ccccc1-c1cccc(-n2c(=O)n([C@H]3CC[C@@H](NC(=O)c4cn5cc(F)ccc5n4)CC3)c(=O)c3cc(F)cnc32)c1` [Example 33, N-{cis-4-[1-{2′-[(dimethylamino)methyl]biphenyl-3-yl}-6-fluoro-2,4-dioxo-1,4-dihydropyrido[2,3-d]pyrimidin-3(2H)-yl]cyclohexyl}-6-fluoroimidazo[1,2-c]pyridine-2-carboxamide.], the IC50 was 0.01 nM.

Regarding `CN(C)CCOc1cc(F)ccc1-c1cccc(-n2c(=O)n([C@H]3CC[C@@H](N(CCN(C)C)C(=O)c4cn5cc(F)ccc5n4)CC3)c(=O)c3cc(F)cnc32)c1` [Example 83, N-{cis-4-[1-{2′-[2-(dimethylamino)ethoxy]-4′-fluorobiphenyl-3-yl}-6-fluoro-2,4-dioxo-1,4-dihydropyrido[2,3-d]pyrimidin-3(2H)-yl]cyclohexyl}-N-[2-(dimethylamino)ethyl]-6-fluoroimidazo[1,2-a]pyridine-2-carboxamide], the IC50 was 6.31 nM. The figure for `CN(C)CCOc1ccc(-c2cccc(-n3c(=O)n([C@H]4CC[C@@H](NC(=O)c5cn6cc(F)ccc6n5)CC4)c(=O)c4cc(F)cnc43)c2)cc1` [Example 78, N-{cis-4-[1-{4′-[2-(dimethylamino)ethoxy]biphenyl-3-yl}-6-fluoro-2,4-dioxo-1,4-dihydropyrido[2,3-d]pyrimidin-3(2H)-yl]cyclohexyl}-6-fluoroimidazo[1,2-a]pyridine-2-carboxamide] is 0.0398 nM.

`CC(C)(C)OC(=O)NCc1ccc(-c2cccc(-n3c(=O)n([C@H]4CC[C@@H](NC(=O)c5cn6cc(F)ccc6n5)CC4)c(=O)c4cc(F)cnc43)c2)cc1` [Example 21, tert-butyl ({3′-[6-fluoro-3-(cis-4-{[(6-fluoroimidazo[1,2-a]pyridin-2-yl)carbonyl]amino}cyclohexyl)-2,4-dioxo-3,4-dihydropyrido[2,3-d]pyrimidin-1(2H)-yl]biphenyl-4-yl}methyl)carbamate.]: the IC50 was 0.0501 nM.

With `Cc1cnc(C(=O)N[C@H]2CC[C@@H](n3c(=O)c4cc(F)cnc4n(-c4cccc(-c5ccc(CN6C[C@@H](C)N[C@@H](C)C6)cc5)c4)c3=O)CC2)cn1` [Example 361, N-{cis-4-[1-(4′-{[(3R,5S)-3,5-dimethylpiperazin-1-yl]methyl}biphenyl-3-yl)-6-fluoro-2,4-dioxo-1,4-dihydropyrido[2,3-d]pyrimidin-3(2H)-yl]cyclohexyl}-5-methylpyrazine-2-carboxamide], the IC50 is 0.2 nM.

As to `O=CN1CCCN(Cc2cc(O)ccc2-c2cccc(-n3c(=O)n([C@H]4CC[C@@H](NCc5cn6cc(F)ccc6n5)CC4)c(=O)c4cc(F)cnc43)c2)CC1` [Example 376, 4-({3′-[6-fluoro-3-(cis-4-{[(6-fluoroimidazo[1,2-a]pyridin-2-yl)methyl]amino}cyclohexyl)-2,4-dioxo-3,4-dihydropyrido[2,3-d]pyrimidin-1(2H)-yl]-4-hydroxybiphenyl-2-yl}methyl)-1,4-diazepane-1-carbaldehyde], the IC50 is 0.0398 nM. In the case of `CC(C)N1CCN(Cc2ccc(-c3cccc(-n4c(=O)n([C@H]5CC[C@@H](NC(=O)C6CC6)CC5)c(=O)c5cc(F)cnc54)c3)cc2)CC1` [Example 233, N-{cis-4-[6-fluoro-1-{4′-[(4-isopropylpiperazin-1-yl)methyl]biphenyl-3-yl}-2,4-dioxo-1,4-di-hydropyrido[2,3-d]pyrimidin-3(2H)-yl]cyclohexyl}cyclo-propanecarboxamide] it was 0.0501 nM. The figure for `O=C(N[C@H]1CC[C@@H](n2c(=O)c3cc(F)cnc3n(-c3cccc(-c4ccc(CN5CCSCC5)cc4)c3)c2=O)CC1)c1cn2c(n1)CCCC2` [Example 135, N-{cis-4-[6-fluoro-2,4-dioxo-1-[4′-(thiomorpholin-4-ylmethyl)biphenyl-3-yl]-1,4-dihydropyrido[2,3-d]pyrimidin-3(2H)-yl]cyclohexyl}-5,6,7,8-tetrahydroimidazo[1,2-a]pyridine-2-carboxamide] is 0.00316 nM; for `O=c1c2cc(F)cnc2n(-c2cccc(-c3ccc(O)cc3CN3CCOCC3)c2)c(=O)n1[C@H]1CC[C@@H](NCc2ccccc2F)CC1` [Example 285, 6-fluoro-3-{cis-4-[(2-fluorobenzyl)amino]cyclohexyl}-1-[4′-hydroxy-2′-(morpholin-4-ylmethyl)biphenyl-3-yl]pyrido[2,3-d]pyrimidine-2,4(1H,3H)-dione] it is 0.794 nM; for `C[C@@H]1CN(Cc2ccc(-c3cccc(-n4c(=O)n([C@H]5CC[C@@H](NC(=O)c6nc7ccccc7[nH]6)CC5)c(=O)c5cc(F)cnc54)c3)cc2)C[C@H](C)N1` [Example 305, N-{cis-4-[1-(4′-{[(3R,5S)-3,5-dimethylpiperazin-1-yl]methyl}biphenyl-3-yl)-6-fluoro-2,4-dioxo-1,4-dihydropyrido[2,3-d]pyrimidin-3(2H)-yl]cyclohexyl}-1H-benzimidazole-2-carboxamide] it is 0.0501 nM. The figure for `O=C(N[C@H]1CC[C@@H](n2c(=O)c3cc(F)cnc3n(-c3ccc4c(cnn4Cc4ccccc4)c3)c2=O)CC1)c1cn2ccccc2n1` [Example 35, N-{cis-4-[1-(1-benzyl-1H-indazol-5-yl)-6-fluoro-2,4-dioxo-1,4-dihydropyrido[2,3-d]pyrimidin-3(2H)-yl]cyclohexyl}imidazo[1,2-a]pyridine-2-carboxamide] is 6.31 nM; for `CCCN1CCN(Cc2ccc(-c3cccc(-n4c(=O)n([C@H]5CC[C@@H](NC(=O)C6(N(C)C)CC6)CC5)c(=O)c5cc(F)cnc54)c3)cc2)CC1` [Example 208, 1-(dimethylamino)-N-{cis-4-[6-fluoro-2,4-dioxo-1-{4′-[(4-propylpiperazin-1-yl)methyl]biphenyl-3-yl}-1,4-dihydropyrido[2,3-d]pyrimidin-3(2H)-yl]cyclohexyl} cyclopropanecarboxamide] it is 0.0126 nM.

In the case of `O=c1c2cc(F)cnc2n(-c2cccc(-c3ccc(CN4CCCOCC4)cc3)c2)c(=O)n1[C@H]1CC[C@@H](N(Cc2cn3cc(F)ccc3n2)Cc2cn3cc(F)ccc3n2)CC1` [Example 339, 3-(cis-4-{bis[(6-fluoroimidazo[1,2-a]pyridin-2-yl)methyl]amino}cyclohexyl)-6-fluoro-1-[4′-(1,4-oxazepan-4-ylmethyl)biphenyl-3-yl]pyrido[2,3-d]pyrimidine-2,4(1H,3H)-dione], the IC50 was 0.0398 nM.

With `NCc1cccc(-c2cccc(-n3c(=O)n([C@H]4CC[C@@H](NC(=O)c5cn6cc(F)ccc6n5)CC4)c(=O)c4cc(F)cnc43)c2)c1` [Example 31, N-{cis-4-[1-[3′-(aminomethyl)biphenyl-3-yl]-6-fluoro-2,4-dioxo-1,4-dihydropyrido[2,3-d]pyrimidin-3(2H)-yl]cyclohexyl}-6-fluoroimidazo[1,2-a]pyridine-2-carboxamide. Hydrochloride], the IC50 is 0.501 nM.

In the case of `CC(C)(C)OC(=O)N[C@H]1CC[C@@H](n2c(=O)c3cc(F)cnc3n(-c3cccc(-c4ccccc4CN4CCOCC4)c3)c2=O)CC1` [Example 45], the IC50 is 0.316 nM. In the case of `O=C(N[C@H]1CC[C@@H](n2c(=O)c3cc(F)cnc3n(-c3cccc(-c4ccc(CN5CCNCC5)cc4O)c3)c2=O)CC1)c1cn2cc(F)ccc2n1` [Example 274, 6-Fluoro-N-{cis-4-[6-fluoro-1-[2′-hydroxy-4′-(piperazin-1-ylmethyl)biphenyl-3-yl]-2,4-dioxo-1,4-dihydropyrido[2,3-d]pyrimidin-3(2H)-yl]cyclohexyl}imidazo[1,2-a]pyridine-2-carboxamide] it was 0.0631 nM. In the case of `CC(C)N1CCN(Cc2ccc(-c3cccc(-n4c(=O)n([C@H]5CC[C@@H](NCc6cnn(C)c6-c6ccccc6)CC5)c(=O)c5cc(F)cnc54)c3)cc2)CC1` [Example 264, 6-fluoro-1-{4′-[(4-isopropyl-piperazin-1-yl)methyl]biphenyl-3-yl}-3-(cis-4-{[(1-methyl-5-phenyl-1H-pyrazol-4-yl)methyl]amino}cyclohexyl)pyrido[2,3-d] pyrimidine-2,4(1H,3H)-dione] it was 2.51 nM; in that of `C[C@@H]1CN(Cc2ccc(-c3cccc(-n4c(=O)n([C@H]5CC[C@@H](NC(=O)C6(N(C)C)CC6)CC5)c(=O)c5cc(F)cnc54)c3)cc2)C[C@H](C)O1` [Example 209, 1-(dimethylamino)-N-{cis-4-[1-(4′-{[(2R,6S)-2,6-dimethylmorpholin-4-yl]methyl}biphenyl-3-yl)-6-fluoro-2,4-dioxo-1,4-dihydropyrido[2,3-d]pyrimidin-3(2H)-yl]cyclohexyl} cyclopropanecarboxamide], 0.00631 nM. Take `CN(C)CCN(C)Cc1ccc(-c2cccc(-n3c(=O)n([C@H]4CC[C@@H](NC(=O)C5(N(C)C)CC5)CC4)c(=O)c4cc(F)cnc43)c2)cc1` [Example 110, 1-(dimethylamino)-N-{cis-4-[1-(4′-{[[2-(dimethylamino)ethyl](methyl)amino]methyl}biphenyl-3-yl)-6-fluoro-2,4-dioxo-1,4-dihydropyrido[2,3-d]pyrimidin-3(2H)-yl]cyclohexyl}cyclopropanecarboxamide]: the IC50 is 0.00794 nM.
